Data published in the SangsterLogP compilation.

Structure (SMILES)	logP
Cc1ccc(N(CCO)CCO)cc1	1.09
C=C(C)C(=O)OCC	1.5
C=C(C)C(=O)OCCOCCOCCOC(=O)C(=C)C	1.88
C=C(C)C(=O)OCC(CC)CCCC (stereo unspecified)	4.67
C=C(C)C(=O)OC	0.79

Results, then the compound that gave them:

logP	Structure (SMILES)
2.18	C=C(C)C(=O)OCC(O)COc1ccccc1 (stereo unspecified)
3.31	C=C(C)C(=O)OCC(O)COc1cccc2ccccc12 (stereo unspecified)
3.46	O=C(OOC(=O)c1ccccc1)c1ccccc1
2.18	C=Cc1ccc(C(=O)O)cc1
1.38	COC(C(=O)c1ccccc1)c1ccccc1 (stereo unspecified)
3.77	C=C(C)C(=O)OCC(C)(O)COc1cccc2ccccc12 (stereo unspecified)
